# Earlier results as cited in patent US10783985B2, “Physics-based computational methods for predicting compound solubility” (Schrödinger, LLC, priority 2015, dated 2020).
# Conditions: for Expt. Solubility: Table 1, experimentally determined
# [1] = experimental, Ilevbare and Taylor 2013
smiles,measurement,setting,value
CC(=O)Nc1ccc(O)cc1 [acetaminophen],aqueous solubility,"experimental, NIH Pubchem database, printed conversion of the mg/L value","~36,000 μM"
Clc1ccccc1C(c1ccccc1)(c1ccccc1)n1ccnc1 [clotrimazole],Expt. Solubility,,1.16 µM
CN1CCN(C2=Nc3cc(Cl)ccc3Nc3ccccc32)CC1 [clozapine],Expt. Solubility,,26.93 µM
CCOC(=O)C1=C(C)NC(C)=C(C(=O)OC)C1c1cccc(Cl)c1Cl (stereo not shown) [felodipine],"""amorphous"" solubility",[1],22.1 µM
same,"""equilibrium"" solubility",[1],2.5 µM
same,"solubility class (BCS), experimental data",felodipine comparison data,low solubility (BCS Class II/IV)
COc1ccc2c(c1)c(CC(=O)O)c(C)n2C(=O)c1ccc(Cl)cc1 [indomethacin],Expt. Solubility,,8.38 µM
